Assay results reported in patent publication US20260250318A1, “COMPOSITIONS AND METHODS FOR CROSSING THE BLOOD BRAIN BARRIER” (VOYAGER THERAPEUTICS, INC., priority 2022, published 2026).

Tests used:
brain = test: Matured TTM-001 and TTM-002 variants, NGS enrichment in mouse brain; assay type: in vivo, mice; settings: relative to AAV9 control
[1] = test system: brains, heart, liver, muscle, and DRG of the NHPs; test: Maturation of TTM-001 and TTM-002 capsids, NGS enrichment in NHP tissues; assay type: in vivo; settings: relative to AAV9 control
How it was run: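 Variants carry mutations within and flanking the loop IV peptide insert: positions 450–466 were triplet-randomized, while positions 449–466 received low-frequency point mutations. The combined pool went into two NHPs, and each peptide was scored by NGS enrichment ratio against AAV9.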

[2] = NGS fold-enrichment, brain of mice
[3] = NGS fold-enrichment, mouse brain
[4] = NGS fold-enrichment of RNA, NHP brain
[5] = NGS fold-enrichment, DRG of NHPs
[6] = NGS fold-enrichment, NHP liver DNA
[7] = NGS fold-enrichment, NHP liver RNA
[8] = NGS fold-enrichment, NHP muscle
[9] = NGS fold-enrichment, RNA, brain of NHPs
[10] = NGS fold-enrichment, heart of NHPs
[11] = NGS fold-enrichment, liver DNA of NHPs
[12] = NGS fold-enrichment, liver RNA of NHPs
[13] = NGS fold-enrichment, muscle of NHPs
[14] = NGS fold-enrichment of matured AAV capsid variants, NHP brain, RNA

| Sequence | Fold Enrichment relative to AAV9, Brain (Mouse) (brain; [2]) [fold] | Fold Enrichment relative to AAV9, Brain (Mouse) (brain; [3]) [fold] | Fold Enrichment relative to AAV9, Brain (NHP) [1, 4] [fold] | Fold Enrichment relative to AAV9, DRG (NHP) [1, 5] [fold] | Fold Enrichment relative to AAV9, DRG (NHP) ([1]; NGS fold-enrichment, NHP DRG) [fold] | Fold Enrichment relative to AAV9, Heart (NHP) ([1]; NGS fold-enrichment, NHP heart) [fold] | Fold Enrichment relative to AAV9, Liver DNA (NHP) [1, 6] [fold] | Fold Enrichment relative to AAV9, Liver RNA (NHP) [1, 7] [fold] | Fold Enrichment relative to AAV9, Brain (NHP) [1, 9] [fold] | Fold Enrichment relative to AAV9, Heart (NHP) [1, 10] [fold] | Fold Enrichment relative to AAV9, Liver DNA (NHP) [1, 11] [fold] | Fold Enrichment relative to AAV9, Liver RNA (NHP) [1, 12] [fold] | Fold Enrichment relative to AAV9, Muscle (NHP) [1, 13] [fold] | Fold Enrichment relative to AAV9, Brain (Mouse) (brain; mouse brain) [fold] | Fold Enrichment relative to AAV9, Brain (NHP) [1, 14] [fold] | Fold Enrichment relative to AAV9, DRG (NHP) ([1]; NHP DRG) [fold] | Fold Enrichment relative to AAV9, Heart (NHP) ([1]; NHP heart) [fold] | Fold Enrichment relative to AAV9, Liver DNA (NHP) ([1]; NHP liver, DNA) [fold] | Fold Enrichment relative to AAV9, Liver RNA (NHP) ([1]; NHP liver, RNA) [fold] | Fold Enrichment relative to AAV9, Muscle (NHP) ([1]; NHP muscle) [fold] | further results |
| --- | --- | --- | --- | --- | --- | --- | --- | --- | --- | --- | --- | --- | --- | --- | --- | --- | --- | --- | --- | --- | --- |
| KTVNRNGSPHSKAQNQQT | 85.361 | 85.361 | 133.016 | 0.000 | 0.000 | 0.416 | 0.000 | 0.000 | 133.016 | 0.416 | 0.000 | 0.000 | 0.000 |  |  |  |  |  |  |  | Fold Enrichment relative to AAV9, Muscle (NHP) [1, 8]: 0.000 fold |
| KTEARSGSPHSKAQNQQT | 62.903 |  |  | 0.000 |  |  |  |  | 73.349 | 0.000 | 0.118 | 0.695 | 0.000 |  |  |  |  |  |  |  |  |
| KSELGSGSPHSKAQNQQT |  |  |  |  |  |  |  |  |  |  |  |  |  | 120.521 | 55.997 | 0.000 | 0.005 | 0.239 | 0.881 | 0.000 |  |
| KNHIGSGSPHSKAQNQQT | 70.356 |  |  | 0.000 |  |  |  |  | 64.535 | 0.000 | 0.187 | 1.253 | 0.000 |  |  |  |  |  |  |  |  |
| KTTNGHDSPHKSGQTQLT |  | 17.885 | 115.637 |  | 0.000 | 0.283 | 0.321 | 0.052 |  |  |  |  |  |  |  |  |  |  |  |  | Fold Enrichment relative to AAV9, Muscle (NHP) [1, 8]: 0.000 fold |
| KTFNASGSPHSKAPNQQT | 66.275 |  |  | 0.208 |  |  |  |  | 65.392 | 0.000 | 0.156 | 0.215 | 0.000 |  |  |  |  |  |  |  |  |
| KTINGSGSPHTKAQNPPT |  | 34.425 | 147.061 |  | 0.000 | 0.727 | 0.000 | 0.000 |  |  |  |  |  |  |  |  |  |  |  |  | Fold Enrichment relative to AAV9, Muscle (NHP) [1, 8]: 0.000 fold |
| KAINGYDSPHKSGQKQQT |  | 13.057 | 83.803 |  | 0.041 | 9.491 | 0.150 | 0.031 |  |  |  |  |  |  |  |  |  |  |  |  | Fold Enrichment relative to AAV9, Muscle (NHP) [1, 8]: 0.000 fold |
| KTELRSGSPHSKAQNQQT |  |  |  |  |  |  |  |  |  |  |  |  |  | 57.814 | 54.289 | 0.000 | 0.007 | 0.239 | 0.790 | 0.040 |  |
| KTINGSGSPHSKAQMPST |  |  |  |  |  |  |  |  |  |  |  |  |  | 114.331 | 54.986 | 1.691 | 0.039 | 0.202 | 0.450 | 0.028 |  |
| KTINGSGSPHSKAQYQNT |  |  |  |  |  |  |  |  |  |  |  |  |  | 71.846 | 50.099 | 0.000 | 0.008 | 0.119 | 0.017 | 0.000 |  |
| KTDRGSGSPHSKAQNQQT | 74.256 |  |  | 0.000 |  |  |  |  | 61.419 | 0.004 | 0.316 | 0.211 | 0.000 |  |  |  |  |  |  |  |  |
| KTERVSGSPHSKAQNQQT | 135.438 | 135.438 | 96.943 | 0.000 | 0.000 | 0.000 | 0.144 | 0.000 | 96.943 | 0.000 | 0.144 | 0.000 | 0.000 | 135.438 | 96.943 | 0.000 | 0.000 | 0.144 | 0.000 | 0.000 | Fold Enrichment relative to AAV9, Muscle (NHP) [1, 8]: 0.000 fold |
| KNINGSGSPHSKAQNQQT (KNTNGSGSPHSKAQNQQT) | 89.719 |  |  | 0.000 |  |  |  |  | 78.445 | 0.000 | 0.177 | 0.571 | 0.000 |  |  |  |  |  |  |  |  |
| KTINGSGSPHSKLQKQQT |  |  |  |  |  |  |  |  |  |  |  |  |  | 61.833 | 52.144 | 0.615 | 0.477 | 0.429 | 1.113 | 1.071 |  |
| KTELGSGSPHSKAQNQQT |  |  |  |  |  |  |  |  |  |  |  |  |  | 87.314 | 52.232 | 0.000 | 0.007 | 0.088 | 0.532 | 0.006 |  |
| KTINGSGSPHSKAQRMST |  |  |  |  |  |  |  |  |  |  |  |  |  | 53.414 | 58.435 | 0.192 | 0.037 | 0.882 | 1.707 | 0.000 |  |
| KSDQGSGSPHSKAQNQQT | 151.911 | 151.911 | 80.076 | 0.000 | 0.000 | 0.000 | 0.124 | 0.993 | 80.076 | 0.000 | 0.124 | 0.993 | 0.000 |  |  |  |  |  |  |  | Fold Enrichment relative to AAV9, Muscle (NHP) [1, 8]: 0.000 fold |
| KTESWSGSPHSKAQNQQT | 67.699 |  |  | 0.000 |  |  |  |  | 69.144 | 0.000 | 0.019 | 0.000 | 0.000 |  |  |  |  |  |  |  |  |
| KNTNGSGSPHSKAQNQQT |  | 89.719 | 78.445 |  | 0.000 | 0.000 | 0.177 | 0.571 |  |  |  |  |  |  |  |  |  |  |  |  | Fold Enrichment relative to AAV9, Muscle (NHP) [1, 8]: 0.000 fold |
